In publication PMC9221290, “Alkaloids of Dicranostigma franchetianum (Papaveraceae) and Berberine Derivatives as a New Class of Antimycobacterial Agents” (Biomolecules, 2022):
In brackets after ≈: the same amount, converted by molar mass. Like-named read-outs stand apart in the source and are kept apart here.

Legend:
[1] = system: Mycolicibacterium smegmatis DSM 43465 (ATCC 607); test: Antimycobacterial microdilution broth assay (resazurin), M. smegmatis; assay type: cell-based; details: 48 h; for MIC: Mycolicibacterium smegmatis, read-out: MIC M. smegmatis, microdilution broth, resazurin, 48 h; for MIC M. smegmatis: microdilution broth, resazurin
[2] = system: Mycolicibacterium aurum DSM 43999 (ATCC 23366); test: Antimycobacterial microdilution broth assay (resazurin), M. aurum; assay type: cell-based; details: 72 h; for MIC: Mycolicibacterium aurum, read-out: MIC M. aurum, microdilution broth, resazurin, 72 h; for MIC M. aurum: microdilution broth, resazurin
[3] = system: Mycobacterium kansasii DSM 44162 (ATCC 12478); test: Antimycobacterial microdilution broth assay (resazurin), M. kansasii; assay type: cell-based; details: 96 h; for MIC: Mycobacterium kansasii, read-out: MIC M. kansasii, microdilution broth, resazurin, 96 h
[4] = system: Mtb H37Ra ITM-M006710 (ATCC 9431); test: Antimycobacterial microdilution broth assay (resazurin), Mtb H37Ra; assay type: cell-based, Mycobacterium tuberculosis
[5] = system: Mycobacterium avium DSM 44156 (ATCC 25291); test: Antimycobacterial microdilution broth assay (resazurin), M. avium; assay type: cell-based; details: 96 h; for MIC: Mycobacterium avium, read-out: MIC M. avium, microdilution broth, resazurin, 96 h; for MIC M. avium: microdilution broth, resazurin
HepG2 cells [6] = system: HepG2 cells
HepG2 cells [7] = test: cells; details: Homo sapiens, HepG2, 24 h
in vitro = details: human, % of cell viability compared to control; for viability at 1 µM: HepG2, 1 µM; for viability at 5 µM: HepG2, 5 µM; for viability at 10 µM: HepG2, 10 µM; for viability at 25 µM: HepG2, 25 µM; for viability at 50 µM: HepG2, 50 µM; for viability at 75 µM: HepG2, 75 µM; for viability at 100 µM: HepG2, 100 µM
[8] = Mycobacterium tuberculosis, 120 h, microdilution broth, resazurin, 120 h, read-out: MIC Mtb H37Ra
[9] = Mycobacterium tuberculosis, calculated from MIC (µg/mL) and MW, read-out: MIC Mtb H37Ra
[10] = read-out: HepG2 IC50, MTT, 24 h incubation
[11] = microdilution broth, resazurin, 120 h
[12] = Mycobacterium tuberculosis, 120 h, read-out: MIC Mtb H37Ra, microdilution broth, resazurin, 120 h
[13] = Mycobacterium tuberculosis, read-out: MIC Mtb H37Ra (µM), calculated from MIC (µg/mL) and MW

CN1Cc2c(ccc3c2OCO3)-c2ccc3cc4c(cc3c21)OCO4 [compound 1, dihydrosanguinarine]
MIC [1]: ≥ 500 µg/mL
MIC [2]: ≥ 500 µg/mL
MIC [3]: 125 µg/mL (≈ 375 µM)
MIC [4, 8]: ≥ 500 µg/mL
MIC [4, 9]: ≥ 1500 µM
MIC [5]: ≥ 500 µg/mL

COc1cc2c(cc1OC)C(=O)Cc1ccc3c(c1CN(C)CC2)OCO3 [compound 8, cryptopine]
MIC [1]: ≥ 125 µg/mL
MIC [2]: ≥ 125 µg/mL
MIC [3]: ≥ 125 µg/mL
MIC [4, 8]: ≥ 125 µg/mL
MIC [4, 9]: ≥ 339 µM
MIC [5]: ≥ 125 µg/mL

COc1ccc2c(c1O)-c1c(OC)c(OC)cc3c1[C@H](C2)N(C)CC3 [compound 10, isocorydine]
MIC [1]: ≥ 500 µg/mL
MIC [2]: ≥ 500 µg/mL
MIC [3]: 125 µg/mL (≈ 366 µM)
MIC [4, 8]: ≥ 500 µg/mL
MIC [4, 9]: ≥ 1430 µM
MIC [5]: ≥ 500 µg/mL

COc1ccc2cc3[n+](cc2c1OCc1ccc(Cl)c(Cl)c1)CCc1cc2c(cc1-3)OCO2 [16k, 9-O-(3,4-dichlorbenzyl)berberine chloride]
MIC [1]: 1.56 µg/mL
MIC [2]: 1.56 µg/mL
MIC [3]: 6.25 µg/mL
SI (selectivity index) (HepG2 cells [6]): 4.55
MIC [4, 8]: 1.56 µg/mL
MIC [4, 9]: 2.78 µM
MIC [5]: 1.56 µg/mL
IC50 (HepG2 cells [7]; read-out: HepG2 IC50, 1. measurement, MTT, 24 h, single measurement 1): 13.3 µM
IC50 (HepG2 cells [7]; read-out: HepG2 IC50, 2. measurement, MTT, 24 h, single measurement 2): 14.8 µM
IC50 (HepG2 cells [7]; read-out: HepG2 IC50, 3. measurement, MTT, 24 h, single measurement 3): 9.9 µM
IC50 (HepG2 cells [7]; [10]): 12.7 ± 2.51 µM
viability at 1 µM (in vitro; 1. measurement): 97.6%
viability at 5 µM (in vitro; 1. measurement): 66.5%
viability at 10 µM (in vitro; 1. measurement): 50.4%
viability at 25 µM (in vitro; 1. measurement): 43.4%
viability at 50 µM (in vitro; 1. measurement): 35%
viability at 75 µM (in vitro; 1. measurement): 13.2%
viability at 100 µM (in vitro; 1. measurement): 2.33%
viability at 1 µM (in vitro; 2. measurement): 97.8%
viability at 5 µM (in vitro; 2. measurement): 79.2%
viability at 10 µM (in vitro; 2. measurement): 46.7%
viability at 25 µM (in vitro; 2. measurement): 35.5%
viability at 50 µM (in vitro; 2. measurement): 35%
viability at 75 µM (in vitro; 2. measurement): 28.2%
viability at 100 µM (in vitro; 2. measurement): 4.02%
viability at 1 µM (in vitro; 3. measurement): 85.7%
viability at 5 µM (in vitro; 3. measurement): 67%
viability at 10 µM (in vitro; 3. measurement): 46.9%
viability at 25 µM (in vitro; 3. measurement): 43.6%
viability at 50 µM (in vitro; 3. measurement): 11.7%
viability at 75 µM (in vitro; 3. measurement): 0.77%
viability at 100 µM (in vitro; 3. measurement): 0.81%

COc1cc2c3c(c1O)-c1c(ccc(OC)c1OC)C[C@@H]3N(C)CC2 [compound 12, corydine]
MIC [1]: ≥ 500 µg/mL
MIC [2]: 250 µg/mL (≈ 732 µM)
MIC [3]: 250 µg/mL (≈ 732 µM)
MIC [4, 8]: ≥ 500 µg/mL
MIC [4, 9]: ≥ 1470 µM
MIC [5]: 62.5 µg/mL (≈ 183 µM)

NNC(=O)c1ccncc1 [isoniazid, reference compound]
MIC [1]: 15.6 to 31.2 µg/mL (≈ 114 to 228 µM)
MIC M. smegmatis [1]: 31.25 µg/mL (≈ 228 µM)
MIC M. aurum [2]: 3.91 µg/mL (≈ 28.5 µM)
MIC M. aurum ([2]; listed as INH): 1.95 to 3.91 µg/mL
MIC [3]: 3.12 to 6.25 µg/mL (≈ 22.8 to 45.6 µM)
MIC M. kansasii ([3]; microdilution broth, resazurin): 6.25 µg/mL (≈ 45.6 µM)
MIC [4, 8]: 0.125 to 0.25 µg/mL
MIC [4, 9]: 1.82 µM
MIC Mtb H37Ra [4, 11]: 0.25 µg/mL (≈ 1.82 µM)
MIC [5]: 500 to 1000 µg/mL (≈ 3650 to 7290 µM)
MIC M. avium [5]: 500 µg/mL (≈ 3650 µM)

COc1cccc2c1C(=O)c1c(O)c3c(c(O)c1C2=O)C[C@@](O)(C(=O)CO)C[C@@H]3O[C@H]1C[C@H](N)[C@H](O)[C@H](C)O1 [doxorubicine, reference compound]
IC50 (HepG2 cells [7]; [10]): 30.4 ± 1.74 µM

COc1cc2c(cc1OC)-c1c(OC)c(OC)cc3c1[C@H](C2)N(C)CC3 [compound 11, glaucine]
MIC [1]: ≥ 250 µg/mL
MIC [2]: 125 µg/mL (≈ 352 µM)
MIC [3]: 62.5 µg/mL (≈ 176 µM)
MIC [4, 12]: 125 µg/mL
MIC [4, 13]: ≥ 352 µM
MIC [5]: 125 µg/mL (≈ 352 µM)

COc1cc2c(cc1O)[C@@H]1Cc3ccc(OC)c(O)c3CN1CC2 [compound 15, scoulerine]
MIC [1]: 125 µg/mL (≈ 382 µM)
MIC [2]: 125 µg/mL (≈ 382 µM)
MIC [3]: 15.6 µg/mL (≈ 47.7 µM)
MIC [4, 8]: 250 µg/mL
MIC [4, 9]: 764 µM
MIC [5]: 250 µg/mL (≈ 764 µM)

COc1cc2c(cc1O)[C@@H]1Cc3ccc(OC)c(OC)c3CN1CC2 [compound 13, isocorypalmine]
MIC [1]: ≥ 250 µg/mL
MIC [2]: ≥ 250 µg/mL
MIC [3]: ≥ 250 µg/mL
MIC [4, 12]: ≥ 250 µg/mL
MIC [4, 13]: ≥ 733 µM
MIC [5]: ≥ 250 µg/mL

CO[C@H]1/C=C/O[C@@]2(C)Oc3c(C)c(O)c4c(O)c(c(/C=N/N5CCN(C)CC5)c(O)c4c3C2=O)NC(=O)/C(C)=C\C=C\[C@H](C)[C@H](O)[C@@H](C)[C@@H](O)[C@@H](C)[C@H](OC(C)=O)[C@@H]1C [rifampicin, reference compound]
MIC [2]: 0.39 to 0.78 µg/mL (≈ 0.474 to 0.948 µM)
MIC M. aurum [2]: 0.39 µg/mL (≈ 0.474 µM)
MIC [4, 13]: 0.0075 µM
MIC Mtb H37Ra ([4]; microdilution broth, resazurin, 120 h, listed as RIF): 0.00156 to 0.0031 µg/mL

c1cc2c(c3c1C[C@H]1c4cc5c(cc4CCN1C3)OCO5)OCO2 [compound 4, stylopine]
MIC [1]: ≥ 125 µg/mL
MIC [2]: ≥ 125 µg/mL
MIC [3]: ≥ 125 µg/mL
MIC [4, 8]: ≥ 125 µg/mL
MIC [4, 9]: ≥ 387 µM
MIC [5]: ≥ 125 µg/mL

COc1ccc2c(c1OC)CN(C)CCc1cc3c(cc1C(=O)C2)OCO3 [compound 7, allocryptopine]
MIC [1]: ≥ 250 µg/mL
MIC [2]: ≥ 250 µg/mL
MIC [3]: 250 µg/mL (≈ 677 µM)
MIC [4, 8]: ≥ 250 µg/mL
MIC [4, 9]: ≥ 678 µM
MIC [5]: ≥ 250 µg/mL

COc1ccc2c(c1OC)CN(C)c1c-2ccc2cc3c(cc12)OCO3 [compound 2, dihydrochelerythrine]
MIC [1]: ≥ 500 µg/mL
MIC [2]: 250 µg/mL (≈ 716 µM)
MIC [3]: 250 µg/mL (≈ 716 µM)
MIC [4, 8]: 250 µg/mL
MIC [4, 9]: 716 µM
MIC [5]: 62.5 µg/mL (≈ 179 µM)

O=C(O)c1cn(C2CC2)c2cc(N3CCNCC3)c(F)cc2c1=O [ciprofloxacin, reference compound]
MIC [1]: 0.0625 to 0.125 µg/mL (≈ 0.189 to 0.377 µM)
MIC M. smegmatis [1]: 0.0625 µg/mL (≈ 0.189 µM)
MIC M. aurum [2]: 0.01562 µg/mL (≈ 0.0471 µM)
MIC M. aurum ([2]; listed as CPX): 0.0078 to 0.0156 µg/mL
MIC [3]: 0.25 µg/mL (≈ 0.754 µM)
MIC [4, 8]: 0.125 to 0.25 µg/mL
MIC [4, 9]: 0.75 µM
MIC Mtb H37Ra [4, 11]: 0.25 µg/mL (≈ 0.754 µM)
MIC [5]: 0.5 µg/mL (≈ 1.51 µM)

protopine [compound 6]
MIC M. smegmatis [1]: ≥500 µg/mL
MIC M. aurum [2]: ≥500 µg/mL
MIC ([4]; calculated from MIC (µg/mL) and MW, read-out: MIC Mtb H37Ra): ≥1416 µM
MIC Mtb H37Ra [4, 11]: ≥500 µg/mL
MIC M. avium [5]: 250 µg/mL
